Results reported in patent publication US10189845B2, “4,6-substituted-pyrazolo[1,5-a]pyrazines as janus kinase inhibitors” (ARRAY BIOPHARMA INC., priority 2014, dated 2019).
Where two headings read alike, the source gives them in different places.

Columns and labels:
Type in all cases: biochemical
Human Tyk2 kinase domain = Human Tyk2 kinase domain (Homo sapiens (Human), UniProt P29597); assay: Tyk2 Inhibition Assay (Example A, Omnia kinase fluorescence peptide substrate assay); conditions: TYK2 Enzyme IC50 1 mM ATP, averaged IC50 ranges
Text: (§1) The assays described in Examples A, B, C and D for the determination of Tyk2, JAK1, JAK2 and JAK3 kinase activity, respectively, utilized the Omnia® Kinase fluorescence peptide substrate-based technology (Invitrogen). The specific components of the assay mixture are described in Examples A, B, C and D. In these assays, Mg^2+ is chelated upon phosphorylation of the Omnia peptide by the kinase to form a bridge between the chelation-enhanced fluorophore Sox and the phosphate, resulting in an increase in fluorescence emission at 485 nm when excited at […]. The reactions were therefore read at excitation 360 nm and emission was measured at 485 nm every 50 seconds for 45 minutes using a PerkinElmer EnVision Multilabel Plate Reader.
(§2) The final buffer conditions for Tyk2, JAK1, JAK2, and JAK3 assays were as follows: 25 mM HEPES, pH 7.4, 10 mM MgCl2, 0.01% Triton X-100 and 1 mM DTT.
(§3) Two-μL aliquots of these were transferred to a fresh plate for a ten-fold intermediate dilution with assay buffer. Five-μL aliquots of the diluted compounds were then transferred to 20-μL of assay mixtures described in Examples A, B, C and D for a final concentration of DMSO of 2%. […] For each plate, percent of control (POC) values were calculated for each well according to the following equation: […]
(§4) IC50's were estimated from the POC's using a standard 4-parameter logistic model:
(§5) The IC50 is defined as the concentration of inhibitor at which the POC equals 50 for the fitted curve.
Compounds of Formula I were screened for their ability to inhibit Tyk2 using the general enzyme inhibition assay method, in which the assay mixture contained 1 mM ATP, 8 μM Omnia Y12 peptide (Catalog # IVGN KPZ3121C; Invitrogen Corporation, Carlsbad, Calif.) and 1 nM Tyk2 in a total volume of 25 μL. Human Tyk2 kinase domain, comprising amino acids 886 to 1187 with 10 additional histidine residues (histidine tag) on the carboxy terminus, was expressed and purified from bacculovirus in-house at Array BioPharma Inc. (Boulder, Colo.). The histidine tag was cleaved after purification using standard conditions.

JAK2 = JAK2 (Homo sapiens (Human), UniProt O60674); assay: JAK2 Inhibition Assay (Example C, Omnia kinase fluorescence peptide substrate assay); conditions: JAK2 Enzyme IC50 1 mM ATP, averaged IC50 ranges
Text: as §1, §2, §3, §4, §5
(§6) Compounds of Formula I were screened for their ability to inhibit JAK2 using the general enzyme inhibition assay method, in which the assay mixture contained 1 mM ATP, 10 μM Omnia® Y7 peptide (Catalog # IVGN KNZ3071C, Invitrogen Corporation, Carlsbad, Calif.) and 4 nM JAK2 in a total volume of 25 μL. JAK2 was purchased from Invitrogen Corporation, Carlsbad, Calif. (catalog # IVGN PV4288).

JAK1 = JAK1 (Homo sapiens (Human), UniProt P23458); assay: JAK1 Inhibition Assay (Example B, Omnia kinase fluorescence peptide substrate assay)
Text: as §1, §2, §3, §4, §5
as §6, with “JAK1” for “JAK2”, “8” for “10”, “Y12” for “Y7”, “KPZ3121C;” for “KNZ3071C,”, “12.5” for “4”, “PV4775).” for “PV4288).”

JAK3 = JAK3 (Homo sapiens (Human), UniProt P52333); assay: JAK3 Inhibition Assay (Example D, Omnia kinase fluorescence peptide substrate assay)
Text: as §1, §2, §3, §4, §5
as §6, with “JAK3” for “JAK2”, “2” for “4”, “PV4080).” for “PV4288).”

[1] = JAK1 Enzyme IC50 1 mM ATP, 1 mM ATP, averaged IC50 ranges

Sequence of JAK2 (O60674 whole entry): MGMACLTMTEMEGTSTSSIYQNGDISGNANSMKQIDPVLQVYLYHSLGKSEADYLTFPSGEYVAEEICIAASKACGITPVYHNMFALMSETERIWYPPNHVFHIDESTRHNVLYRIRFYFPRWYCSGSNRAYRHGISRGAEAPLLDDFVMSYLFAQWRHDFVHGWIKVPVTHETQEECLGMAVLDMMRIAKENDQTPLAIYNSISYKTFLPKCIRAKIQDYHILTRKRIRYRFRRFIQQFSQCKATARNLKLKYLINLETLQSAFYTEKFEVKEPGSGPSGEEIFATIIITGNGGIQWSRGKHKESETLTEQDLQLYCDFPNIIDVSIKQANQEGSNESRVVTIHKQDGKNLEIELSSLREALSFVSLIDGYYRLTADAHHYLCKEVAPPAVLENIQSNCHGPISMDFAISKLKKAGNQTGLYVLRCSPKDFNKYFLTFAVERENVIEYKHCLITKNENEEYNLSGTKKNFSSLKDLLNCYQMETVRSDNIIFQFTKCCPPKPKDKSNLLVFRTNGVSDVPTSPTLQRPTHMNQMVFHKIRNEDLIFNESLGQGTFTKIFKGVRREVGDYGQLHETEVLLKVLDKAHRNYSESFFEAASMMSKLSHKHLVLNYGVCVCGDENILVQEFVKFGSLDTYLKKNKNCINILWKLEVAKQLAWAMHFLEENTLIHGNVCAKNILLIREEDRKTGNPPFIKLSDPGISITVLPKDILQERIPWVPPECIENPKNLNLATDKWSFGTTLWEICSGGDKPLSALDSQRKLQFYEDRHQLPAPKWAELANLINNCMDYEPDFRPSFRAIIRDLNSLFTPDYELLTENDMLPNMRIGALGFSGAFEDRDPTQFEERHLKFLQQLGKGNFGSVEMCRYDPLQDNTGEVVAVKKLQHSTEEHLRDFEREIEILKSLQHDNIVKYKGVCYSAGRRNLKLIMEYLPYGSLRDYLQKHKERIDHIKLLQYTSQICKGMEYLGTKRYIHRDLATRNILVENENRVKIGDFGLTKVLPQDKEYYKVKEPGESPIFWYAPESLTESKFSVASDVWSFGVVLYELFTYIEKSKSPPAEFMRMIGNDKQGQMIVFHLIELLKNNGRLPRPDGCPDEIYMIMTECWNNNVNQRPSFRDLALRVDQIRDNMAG
Sequence of JAK3 (P52333 whole entry): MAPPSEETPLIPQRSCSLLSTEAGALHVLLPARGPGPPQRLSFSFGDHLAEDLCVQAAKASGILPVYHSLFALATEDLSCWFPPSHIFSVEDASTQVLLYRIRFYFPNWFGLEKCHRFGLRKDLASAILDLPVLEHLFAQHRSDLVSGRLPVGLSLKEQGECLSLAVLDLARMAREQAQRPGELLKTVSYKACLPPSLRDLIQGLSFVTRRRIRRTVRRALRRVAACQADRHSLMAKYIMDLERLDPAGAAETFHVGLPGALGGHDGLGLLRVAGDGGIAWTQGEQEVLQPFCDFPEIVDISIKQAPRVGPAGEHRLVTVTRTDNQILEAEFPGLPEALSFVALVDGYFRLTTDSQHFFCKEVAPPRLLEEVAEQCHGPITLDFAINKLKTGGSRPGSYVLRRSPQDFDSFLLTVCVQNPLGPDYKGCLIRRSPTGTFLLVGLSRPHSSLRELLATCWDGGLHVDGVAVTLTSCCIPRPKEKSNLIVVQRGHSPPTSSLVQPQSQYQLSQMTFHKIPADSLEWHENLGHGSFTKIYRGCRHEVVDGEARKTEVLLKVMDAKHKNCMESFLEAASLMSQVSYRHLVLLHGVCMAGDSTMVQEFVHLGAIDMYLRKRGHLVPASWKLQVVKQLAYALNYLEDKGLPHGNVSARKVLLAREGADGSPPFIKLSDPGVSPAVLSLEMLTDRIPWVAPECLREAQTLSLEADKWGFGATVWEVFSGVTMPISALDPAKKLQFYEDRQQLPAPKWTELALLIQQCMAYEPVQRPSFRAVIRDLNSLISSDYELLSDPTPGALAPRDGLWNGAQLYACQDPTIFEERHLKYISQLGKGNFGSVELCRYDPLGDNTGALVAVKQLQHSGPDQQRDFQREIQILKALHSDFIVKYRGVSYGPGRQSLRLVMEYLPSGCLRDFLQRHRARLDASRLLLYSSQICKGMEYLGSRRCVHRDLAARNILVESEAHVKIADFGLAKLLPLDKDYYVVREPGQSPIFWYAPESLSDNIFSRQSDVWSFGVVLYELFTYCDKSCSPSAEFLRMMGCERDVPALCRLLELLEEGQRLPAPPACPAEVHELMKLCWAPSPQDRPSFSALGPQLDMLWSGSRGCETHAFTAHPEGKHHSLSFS
Sequence of Human Tyk2 kinase domain (P29597 886-1187): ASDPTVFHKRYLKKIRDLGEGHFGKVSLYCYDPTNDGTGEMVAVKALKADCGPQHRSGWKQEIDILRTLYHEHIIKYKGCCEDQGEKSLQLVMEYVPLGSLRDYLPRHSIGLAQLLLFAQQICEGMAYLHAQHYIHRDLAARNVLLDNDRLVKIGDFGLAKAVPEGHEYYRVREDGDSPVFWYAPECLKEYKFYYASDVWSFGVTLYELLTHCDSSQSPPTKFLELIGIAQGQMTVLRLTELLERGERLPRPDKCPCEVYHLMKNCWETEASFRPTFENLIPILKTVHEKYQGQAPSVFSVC
Sequence of JAK1 (P23458 whole entry): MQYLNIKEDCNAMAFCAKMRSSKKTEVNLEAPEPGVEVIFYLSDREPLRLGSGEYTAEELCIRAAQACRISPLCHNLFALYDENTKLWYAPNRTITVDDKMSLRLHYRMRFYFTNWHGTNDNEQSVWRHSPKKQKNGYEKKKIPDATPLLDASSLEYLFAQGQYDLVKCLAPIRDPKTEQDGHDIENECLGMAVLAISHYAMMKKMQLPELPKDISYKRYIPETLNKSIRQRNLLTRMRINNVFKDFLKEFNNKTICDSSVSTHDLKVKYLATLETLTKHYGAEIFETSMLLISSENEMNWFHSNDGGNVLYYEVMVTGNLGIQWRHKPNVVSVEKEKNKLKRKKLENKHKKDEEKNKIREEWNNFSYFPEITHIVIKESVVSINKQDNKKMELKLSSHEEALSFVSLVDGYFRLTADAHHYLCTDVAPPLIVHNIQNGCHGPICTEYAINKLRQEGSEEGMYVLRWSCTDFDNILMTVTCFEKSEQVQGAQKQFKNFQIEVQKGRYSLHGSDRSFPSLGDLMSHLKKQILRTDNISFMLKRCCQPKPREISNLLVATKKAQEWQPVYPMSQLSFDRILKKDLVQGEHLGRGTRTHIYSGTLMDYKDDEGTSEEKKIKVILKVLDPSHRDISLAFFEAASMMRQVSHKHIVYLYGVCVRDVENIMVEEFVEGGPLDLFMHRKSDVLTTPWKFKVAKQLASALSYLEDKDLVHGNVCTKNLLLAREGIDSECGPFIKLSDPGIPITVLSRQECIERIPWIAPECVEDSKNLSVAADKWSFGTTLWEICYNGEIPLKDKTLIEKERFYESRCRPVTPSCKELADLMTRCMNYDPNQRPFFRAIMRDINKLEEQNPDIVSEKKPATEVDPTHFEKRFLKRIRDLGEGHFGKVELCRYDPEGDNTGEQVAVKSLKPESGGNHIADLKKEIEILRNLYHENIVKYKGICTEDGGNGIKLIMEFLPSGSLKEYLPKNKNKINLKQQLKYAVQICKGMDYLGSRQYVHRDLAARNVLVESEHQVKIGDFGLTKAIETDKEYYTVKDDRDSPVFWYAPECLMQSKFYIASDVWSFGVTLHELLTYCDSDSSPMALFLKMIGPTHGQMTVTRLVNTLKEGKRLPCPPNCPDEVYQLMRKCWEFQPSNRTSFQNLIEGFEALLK

Row | Compound | IC50 (Human Tyk2 kinase domain) | IC50 (JAK2) | IC50 (JAK1) | IC50 (JAK3) | IC50 (JAK1; [1])
1 | Cn1cc(-c2cn3nccc3c(-c3cnn(C4CCCCCC4)c3)n2)cn1 [Example 2, 4-(1-cycloheptyl-1H-pyrazol-4-yl)-6-(1-methyl-1H-pyrazol-4-yl)pyrazolo[1,5-a]pyrazine] | 100 to 1000 nM | 100 to 1000 nM | 1000 to 10000 nM | 1000 to 10000 nM | 
2 | CCC(CC)n1cc(-c2nc(-c3cnn(C4CS(=O)(=O)C4)c3)cn3nccc23)cn1 [Example 13, 3-(4-(4-(1-(pentan-3-yl)-1H-pyrazol-4-yl)pyrazolo[1,5-a]pyrazin-6-yl)-1H-pyrazol-1-yl)thietane 1,1-dioxide] | 10 to 100 nM |  | 100 to 1000 nM | 1000 to 10000 nM | 
3 | CCC(CC)n1cc(-c2nc(-c3cnn(C4CCN(C(=O)NC)CC4)c3)cn3nccc23)cn1 [Example 34, N-methyl-4-(4-(4-(1-(pentan-3-yl)-1H-pyrazol-4-yl)pyrazolo[1,5-a]pyrazin-6-yl)-1H-pyrazol-1-yl)piperidine-1-carboxamide] | 10 to 100 nM |  | 10 to 100 nM | 1000 to 10000 nM | 
4 | CCC(CC)n1cc(-c2nc(-c3cnn([C@H]4CC[C@@H](O)CC4)c3)cn3nccc23)cn1 [Example 121, cis-4-(4-(4-(1-(pentan-3-yl)-1H-pyrazol-4-yl)pyrazolo[1,5-a]pyrazin-6-yl)-1H-pyrazol-1-yl)cyclohexanol] | 10 to 100 nM | 10 to 100 nM | 100 to 1000 nM |  | 
5 | CC[C@@H](C)n1cc(-c2nc(-c3cnn(C(CO)CO)c3)cn3nccc23)cn1 [Example 85, (R)-2-(4-(4-(1-(sec-butyl)-1H-pyrazol-4-yl)pyrazolo[1,5-a]pyrazin-6-yl)-1H-pyrazol-1-yl)propane-1,3-diol] | 100 to 1000 nM |  | 1000 to 10000 nM | 1000 to 10000 nM | 
6 | CC1(C)CCC[C@@H]1n1cc(-c2nc(-c3cnn(C[C@@H](O)CO)c3)cn3nccc23)cn1 [Example 95, (R)-3-(4-(4-(1-((S)-2,2-dimethylcyclopentyl)-1H-pyrazol-4-yl)pyrazolo[1,5-a]pyrazin-6-yl)-1H-pyrazol-1-yl)propane-1,2-diol] | 1000 to 10000 nM |  |  |  | 1000 to 10000 nM
7 | CCC(CC)n1cc(-c2nc(-c3cnn(C4CCN(C(C)=O)CC4)c3)cn3nccc23)cn1 [Example 31, 1-(4-(4-(4-(1-(pentan-3-yl)-1H-pyrazol-4-yl)pyrazolo[1,5-a]pyrazin-6-yl)-1H-pyrazol-1-yl)piperidin-1-yl)ethanone] | 10 to 100 nM |  | 100 to 1000 nM | 1000 to 10000 nM | 
8 | CCC(CC)n1cc(-c2nc(-c3cnn([C@H]4CC[C@H](O)CC4)c3)cn3nccc23)cn1 [Example 118, trans-4-(4-(4-(1-(pentan-3-yl)-1H-pyrazol-4-yl)pyrazolo[1,5-a]pyrazin-6-yl)-1H-pyrazol-1-yl)cyclohexanol] | 10 to 100 nM | < 10 nM | 10 to 100 nM |  | 
9 | CCC(CC)n1cc(-c2nc(-c3cnn(C4CN(C(C)=O)C4)c3)cn3nccc23)cn1 [Example 38, 1-(3-(4-(4-(1-(pentan-3-yl)-1H-pyrazol-4-yl)pyrazolo[1,5-a]pyrazin-6-yl)-1H-pyrazol-1-yl)azetidin-1-yl)ethanone] |  |  | 100 to 1000 nM | 1000 to 10000 nM | 
10 | CCC[C@H](C)n1cc(-c2nc(-c3cnn(C[C@H](O)CO)c3)cn3nccc23)cn1 [Example 86, (S)-3-(4-(4-(1-((S)-pentan-2-yl)-1H-pyrazol-4-yl)pyrazolo[1,5-a]pyrazin-6-yl)-1H-pyrazol-1-yl)propane-1,2-diol] |  | 10 to 100 nM |  | 1000 to 10000 nM | 100 to 1000 nM
11 | CCC(CC)n1cc(-c2nc(-c3cnn(C4CN(S(C)(=O)=O)C4)c3)cn3nccc23)cn1 [Example 37, 6-(1-(1-(methylsulfonyl)azetidin-3-yl)-1H-pyrazol-4-yl)-4-(1-(pentan-3-yl)-1H-pyrazol-4-yl)pyrazolo[1,5-a]pyrazine] | 10 to 100 nM |  | 100 to 1000 nM | 1000 to 10000 nM | 
12 | CCC(CC)n1cc(-c2nc(-c3cnn(CC(CO)CO)c3)cn3nccc23)cn1 [Example 61, 2-((4-(4-(1-(pentan-3-yl)-1H-pyrazol-4-yl)pyrazolo[l,5-a]pyrazin-6-yl)-1H-pyrazol-1-yl)methyl)propane-1,3-diol] |  |  |  | 1000 to 10000 nM | 100 to 1000 nM

Now from value to molecule:

Row | IC50 (Human Tyk2 kinase domain) | IC50 (JAK2) | IC50 (JAK1) | IC50 (JAK3) | IC50 (JAK1; [1]) | Compound
14 | 10 to 100 nM | 10 to 100 nM | 100 to 1000 nM | 1000 to 10000 nM |  | CCC(CC)n1cc(-c2nc(-c3cnn(C[C@@H](O)CCO)c3)cn3nccc23)cn1 (single isomer, unassigned) [Example 200]
15 | 10 to 100 nM | 10 to 100 nM | 100 to 1000 nM | 1000 to 10000 nM |  | CCC(CC)n1cc(-c2nc(-c3cnn(CCN4CC[C@H](OC)C4)c3)cn3nccc23)cn1 [Example 137, (S)-6-(1-(2-(3-methoxypyrrolidin-1-yl)ethyl)-1H-pyrazol-4-yl)-4-(1-(pentan-3-yl)-1H-pyrazol-4-yl)pyrazolo[1,5-a]pyrazine]
16 |  | 100 to 1000 nM |  |  |  | CCC(C1CC1)n1cc(-c2nc(-c3cnn(C[C@@H](O)CO)c3)cn3nccc23)cn1 (single isomer, unassigned) [Example 214]
17 |  | 10 to 100 nM |  |  | 100 to 1000 nM | CCC(CC)n1cc(-c2nc(-c3cnn([C@@H](C)CO)c3)cn3nccc23)cn1 [compound 126, (S)-2-(4-(4-(1-(pentan-3-yl)-1H-pyrazol-4-yl)pyrazolo[1,5-a]pyrazin-6-yl)-1H-pyrazol-1-yl)propan-1-ol]
18 | 100 to 1000 nM | 100 to 1000 nM |  |  |  | CCC(CC(F)(F)F)n1cc(-c2nc(-c3cnn(C[C@@H](O)CO)c3)cn3nccc23)cn1 (single isomer, unassigned) [Example 210]
19 | 10 to 100 nM | 10 to 100 nM |  |  |  | CC[C@H](CC(F)(F)F)n1cc(-c2nc(-c3cnn(C[C@@H](O)CO)c3)cn3nccc23)cn1 (single isomer, unassigned) [Example 209]
20 | 10 to 100 nM |  | 100 to 1000 nM | 1000 to 10000 nM |  | CCC(C1CC1)n1cc(-c2nc(-c3cnn(C[C@@H](O)CO)c3)cn3nccc23)cn1 (single isomer, unassigned) [Example 213]
21 |  | 100 to 1000 nM | 100 to 1000 nM | 1000 to 10000 nM |  | CCC(CC)n1cc(-c2nc(-c3cnn(C4CN(C(=O)C(C)(C)O)C4)c3)cn3nccc23)cn1 [Example 176, 2-hydroxy-2-methyl-1-(3-(4-(4-(1-(pentan-3-yl)-1H-pyrazol-4-yl)pyrazolo[1,5-a]pyrazin-6-yl)-1H-pyrazol-1-yl)azetidin-1-yl)propan-1-one]
22 | < 10 nM | 10 to 100 nM | 100 to 1000 nM |  |  | CCC(CC)n1cc(-c2nc(-c3cnn([C@H]4C[C@@](C)(O)C4)c3)cn3nccc23)cn1 [Example 162, (1s,3s)-1-methyl-3-(4-(4-(1-(pentan-3-yl)-1H-pyrazol-4-yl)pyrazolo[1,5-a]pyrazin-6-yl)-1H-pyrazol-1-yl)cyclobutanol]
23 |  | 10 to 100 nM | 100 to 1000 nM | 1000 to 10000 nM |  | CCC(CC)n1cc(-c2nc(-c3cnn(C4CN(C(=O)C5(O)CC5)C4)c3)cn3nccc23)cn1 [Example 177, (1-hydroxycyclopropyl)(3-(4-(4-(1-(pentan-3-yl)-1H-pyrazol-4-yl)pyrazolo[1,5-a]pyrazin-6-yl)-1H-pyrazol-1-yl)azetidin-1-yl)methanone]
